Test system: Capsicum frutescens and Capsicum annuum
Assay: Comparative number of folds enhancement of phenyl propanoid intermediates and capsaicinoids by optimized elicitors
Format: in vivo
Method: (§1) The flowers of C. frutescens were sprayed with water, which was taken as control. The fruits of C. frutescens which received different treatments were harvested on 25, 30, 35 and 40 days after anthesis and extracted with 1:2 (w/v) of acetonitrile followed by in-vacuo evaporation and resuspension with 1 ml methanol. The extracted samples were centrifuged at 4000 rpm for 10 minutes. The samples were subjected to High Performance Liquid Chromatography for quantification of phenyl proponoid intermediates and major Capsaicinoids. The mobile phase of linear gradient of 0-100 % acetonitrile in water with pH 3.0 for 35 minutes and 100% was maintained for 2 minutes at 35th minute. The detection was at 236 nm and flow rate was maintained at 1 ml/min. C-18 column of 250×4.6 mm and 5-μm diameter was used. The reagent used was of HPLC grade. The intermediates of phenyl proponoid pathway (Phenylalanine, Cinnamic acid, Coumaric acid, Caffeic acid, Ferulic acid and Vanillylamine) and two major Capsaicinoids (Capsaicin and Dihydrdcapsaicin) were purchased from Sigma Co. A standard stock solution of 1 mg/ml was prepared in methanol. 5 and 10 μl of standards and samples was injected to HPLC for three times and the mean value was calculated. Standard deviation of samples was calculated according to Tukey's method.
as §1, with “C. annuum var Arka Lohit” for “C. frutescens”, “of Acetonitrile” for “of acetonitrile”, “of 0-100%” for “of 0-100 %”, “and Dihydrocapsaicin)” for “and Dihydrdcapsaicin)”

[1] = 35 days after anthesis, optimized concentration: biotic 0.5-1% w/v, abiotic 2.5 μM

Row | SMILES | number of folds enhancement of Caffeic Acid [1] | number of folds enhancement of Capsaicin [1] | number of folds enhancement of Cinnamic Acid [1] | number of folds enhancement of Coumaric Acid [1] | number of folds enhancement of Dihydrocapsaicin [1] | number of folds enhancement of Ferulic Acid [1] | number of folds enhancement of Phenylalanine [1] | number of folds enhancement of Vanillylamine [1] | number of folds enhancement of Caffeic Acid (in vivo) | number of folds enhancement of Capsaicin (in vivo) | number of folds enhancement of Cinnamic Acid (in vivo) | number of folds enhancement of Coumaric Acid (in vivo) | number of folds enhancement of Dihydrocapsaicin (in vivo) | number of folds enhancement of Ferulic Acid (in vivo) | number of folds enhancement of Phenylalanine (in vivo) | number of folds enhancement of Vanillylamine (in vivo)
1 | CC/C=C\CC1C(=O)CCC1CC(=O)OC (stereo not shown) [Methyl Jasmonate] | 1.63-3.79 folds | 1.65-1.88 folds | 1.42-3.79 folds | 1.25-3.51 folds | 1.41-1.68 folds | 1.59-2.43 folds | 1.36-1.52 folds | 1.68-1.77 folds |  |  |  |  |  |  |  | 
2 | O=C([O-])c1ccccc1O.[Na+] [Salicylic Acid sodium salt, Salicylic acid sodium salt] |  |  |  |  |  |  |  |  | 1.45-1.75 folds | 1.26-1.58 folds | 1.36-2.50 folds | 1.28-1.67 folds | 1.11-1.32 folds | 1.11-1.28 folds | 1.02-1.44 folds | 1.26-1.28 folds

From patent US20060073121A1, “Spray formulation for pungency enhancement in Capsicum” (priority 2004, published 2006)
